What was measured:
rat Nluc-A2BR = biological target: T1, rat Nluc-A2BR (Rattus norvegicus, UniProt P29276, M1L); assay: NanoBRET competition binding with CA200645, intact HEK293T cells; format: cell-based; conditions: for Ki: read-out: Nluc-rat A2B (pKD or pKi) (converted)
T1 construct: gene Adora2b; internal XhoI site removed (silent by primer); transient in intact HEK293T cells
T1 sequence (P29276 1-332 M1L): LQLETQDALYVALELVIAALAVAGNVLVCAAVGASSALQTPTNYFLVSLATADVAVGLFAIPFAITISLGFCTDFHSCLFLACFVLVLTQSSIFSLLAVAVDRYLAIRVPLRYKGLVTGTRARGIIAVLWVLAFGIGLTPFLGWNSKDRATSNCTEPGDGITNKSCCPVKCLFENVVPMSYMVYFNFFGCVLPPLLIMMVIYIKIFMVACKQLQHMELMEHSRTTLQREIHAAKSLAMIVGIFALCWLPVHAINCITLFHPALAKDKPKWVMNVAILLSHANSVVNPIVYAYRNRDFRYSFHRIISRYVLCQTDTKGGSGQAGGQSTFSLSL
From the text: NanoBRET competition binding with CA200645, intact HEK293T cells on rat Nluc-A2BR

rat Nluc-A2AR = biological target: T2, rat Nluc-A2AR (Rattus norvegicus, UniProt P30543, M1L); assay: as above; format: cell-based; conditions: read-out: Nluc-rat A2A (pKD or pKi) (converted)
T2 construct: gene Adora2a; internal BamHI site removed (silent by primer); transient in intact HEK293T cells
From the text: NanoBRET competition binding with CA200645, intact HEK293T cells on rat Nluc-A2AR

T2 sequence (P30543 whole entry M1L): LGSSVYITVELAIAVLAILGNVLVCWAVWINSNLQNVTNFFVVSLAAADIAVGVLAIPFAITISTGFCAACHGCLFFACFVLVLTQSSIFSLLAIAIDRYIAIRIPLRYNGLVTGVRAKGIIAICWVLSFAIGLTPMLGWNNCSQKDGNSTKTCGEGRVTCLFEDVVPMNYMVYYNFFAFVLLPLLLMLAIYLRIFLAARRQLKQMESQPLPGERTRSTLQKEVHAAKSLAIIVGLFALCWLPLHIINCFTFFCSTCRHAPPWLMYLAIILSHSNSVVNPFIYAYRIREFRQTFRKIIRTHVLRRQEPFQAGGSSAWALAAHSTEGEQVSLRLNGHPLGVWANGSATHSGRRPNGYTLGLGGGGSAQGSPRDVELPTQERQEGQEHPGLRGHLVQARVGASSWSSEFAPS

| Ki (rat Nluc-A2BR) | Ki (rat Nluc-A2AR) | SMILES | Nluc-rat A2B (pKD or pKi) (rat Nluc-A2BR; […] CA200645, HBSS pH […] BSA, […] DMSO, […] °C, […] h, Cheng-Prusoff) |
| --- | --- | --- | --- |
| – | – | N#Cc1c(N)nc(SCC(N)=O)c(C#N)c1-c1ccc(OCC2CC2)cc1 [BAY 60‐6583, 2‐[[6‐Amino‐3,5‐dicyano‐4‐[4‐(cyclopropylmethoxy)phenyl]‐2‐pyridinyl]thio]‐acetamide] | 6.33 ± 0.03 |
| 2 nM | 490 nM | CCCn1c(=O)[nH]c2nc(-c3ccc(S(=O)(=O)N4CCN(c5ccc(Cl)cc5)CC4)cc3)[nH]c2c1=O [PSB 603] | – |
| 708 nM | – | Nc1nc2c(cnn2CCc2ccccc2)c2nc(-c3ccco3)nn12 [SCH 58261, 2‐(2‐Furanyl)‐7‐(2‐phenylethyl)‐7H‐pyrazolo[4,3‐e][1,2,4]triazolo[1,5‐c]pyrimidin‐5‐amine] | – |
| 537 nM | 2880 nM | CCCn1c(=O)[nH]c2nc(-c3ccc(S(=O)(=O)O)cc3)[nH]c2c1=O [PSB 1115, 4‐(2,3,6,7‐Tetrahydro‐2,6‐dioxo‐1‐propyl‐1H‐purin‐8‐yl)‐benzenesulfonic acid] | – |

Source: PMC9415116, “Regionally selective cardiovascular responses to adenosine A2A and A2B receptor activation” (The FASEB Journal, 2022)
